Twelve compounds from patent US12552826B2, “PRMT5 inhibitors” (Merck Sharp & Dohme LLC, priority 2018, dated 2026) can be followed below.

Molecules are shown by their SMILES. pEC50: −log10 of the molar value.

T1 sequence (O14744 whole entry): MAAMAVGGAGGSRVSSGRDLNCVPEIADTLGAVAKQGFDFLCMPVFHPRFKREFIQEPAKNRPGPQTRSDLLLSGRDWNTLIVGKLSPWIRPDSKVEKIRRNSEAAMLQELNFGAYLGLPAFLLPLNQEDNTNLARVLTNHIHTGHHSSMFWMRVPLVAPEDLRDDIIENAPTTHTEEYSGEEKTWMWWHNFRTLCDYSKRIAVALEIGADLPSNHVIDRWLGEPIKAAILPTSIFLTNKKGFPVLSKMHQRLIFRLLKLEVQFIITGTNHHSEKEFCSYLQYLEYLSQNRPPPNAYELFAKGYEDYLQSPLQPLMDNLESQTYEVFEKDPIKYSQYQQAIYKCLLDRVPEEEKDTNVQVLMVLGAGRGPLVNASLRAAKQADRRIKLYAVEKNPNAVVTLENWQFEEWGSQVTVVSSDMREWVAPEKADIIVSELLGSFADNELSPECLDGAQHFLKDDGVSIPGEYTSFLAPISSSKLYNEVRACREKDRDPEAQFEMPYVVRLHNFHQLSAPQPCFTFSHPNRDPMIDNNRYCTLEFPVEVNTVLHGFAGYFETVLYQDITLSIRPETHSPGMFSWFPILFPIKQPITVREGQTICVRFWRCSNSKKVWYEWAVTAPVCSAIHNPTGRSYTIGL
T1 sequence (Q9BQA1 whole entry partner): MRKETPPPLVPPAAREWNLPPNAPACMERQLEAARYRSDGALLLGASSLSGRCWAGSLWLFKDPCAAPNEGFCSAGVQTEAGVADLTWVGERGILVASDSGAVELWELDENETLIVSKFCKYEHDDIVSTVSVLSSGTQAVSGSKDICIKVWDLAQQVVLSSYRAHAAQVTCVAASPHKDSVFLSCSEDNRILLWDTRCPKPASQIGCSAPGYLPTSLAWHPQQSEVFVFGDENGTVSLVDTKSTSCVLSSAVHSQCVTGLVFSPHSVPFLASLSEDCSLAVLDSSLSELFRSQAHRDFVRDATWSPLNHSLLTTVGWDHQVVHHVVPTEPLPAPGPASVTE

This assay addresses T1, PRMT5 (Homo sapiens, UniProt O14744).
T1 construct: endogenous in cells; host or cells: MCF-7
Nature of the assay: PRMT5 Cell Target Engagement (TE) Assay. The following applies: MCF-7 cells, 3 days treatment, nuclear SDMA by high content imaging. It is filed as cell-based. An excerpt:
The PRMT5 TE assay is a biomarker assay for identifying compounds that inhibit symmetric dimethylation of arginine (SDMA) of PRMT5 substrates. The following substrates have been reported for PRMT5: Histone H2A and H4 R3, Histone H3 R2, Histone H3 R8, spliceosome Sm proteins, ribosomal protein RPS10, p53, FEN1, nucleoplasmin, nucleolin, EGFR and EBNA. The assay will focus on detecting symmetrically dimethylated nuclear proteins using high content imaging technology. Detection of the expression of symmetrically dimethylated nuclear proteins is through a mixture of primary rabbit monoclonal antibodies to SDMA (CST 13222), which in turn recognized by an Alexafluor 488 dye-conjugated anti-rabbit IgG secondary antibody. The IN Cell Analyzer 2200 or Opera-Phenix measures nuclear Alexafluor 488 fluorescent dye intensity that is directly related to the level of expression of symmetrically dimethylated nuclear proteins at the single cell level. Nuclear AF488 dye intensities are compared to the mean value for DMSO treated cells (MIN) to report percent of inhibition for each compound-treated well.
In this assay, the cell potency (EC50) of each compound was determined from a ten point (1:3 serial dilution; top compound concentration of 10000 nM) titration curve using the following outlined procedure. Each well of a BD falcon collagen coated black/clear bottom 384-well plate was seeded with 4000 MCF-7 cells in 30 μl media and allowed to attach for 5 hours. Media is ATCC-formulated Eagle's Minimum Essential Medium, Catalog No. 30-2003. The following components were added to the base medium: 0.01 mg/mL human recombinant insulin; fetal bovine serum to a final concentration of 10%. Additional 30 μl of media containing 2× compounds were added to each well. Cells were treated for 3 days in 37° C. CO2 incubator. On day 3, cells were fixed with Cytofix, permeabilized with 0.4% Triton-X-100/Cytofix, and washed with D-PBS without Ca/Mg. Cells were blocked with Licor Odessey blocking reagent for 1 hour at room temperature, followed by incubation with anti-SDMA (1:1000) antibody at 4° C. overnight. 1° antibody was removed, followed by three washings with DPBS without Ca/Mg and 0.05% Tween20. Hoechst (5 μg/mL), Cell Mask deep stain (1:2000) and Alexa488-conjugated goat anti-rabbit IgG (2 μg/mL) was added for 1 hour at room temperature. A final washing step (three washes) was performed before sealing plate for imaging on In Cell Analyzer 2200 or Opera-Phenix. Images from analyzer were uploaded to Columbus for image analysis. IC50 values were determined by 4 parameters robust fit of percent fluorescence units vs. (Log10) compound concentrations.
`Cc1ncnc2c1ccn2[C@@H]1O[C@H]([C@](C)(O)c2cccc3c2CNCC3)[C@@](C)(O)[C@H]1O` [Example 88, (2R,3S,4R,5R)-2-((R)-1-hydroxy-1-(1,2,3,4-tetrahydroisoquinolin-8-yl)ethyl)-3-methyl-5-(4-methyl-7H-pyrrolo[2,3-d]pyrimidin-7-yl)tetrahydrofuran-3,4-diol]: the pEC50 was 7.33. The result for `C[C@@]1(O)[C@@H]([C@H](O)c2cccc(Cl)c2F)O[C@@H](n2ccc3c(N)ncnc32)[C@@H]1O` [Example 46, 7-[(5R)-5-C-(3-chloro-2-fluorophenyl)-3-C-methyl-beta-D-ribofuranosyl]-7H-pyrrolo[2,3-d]pyrimidin-4-amine] reads 6.39. The result for `C[C@@]1(O)[C@@H]([C@H](O)c2ccccc2)O[C@@H](n2ccc3c(N)ncnc32)[C@@H]1O` [Example 11, 7-[(5R)-3-C-methyl-5-C-phenyl-beta-D-ribofuranosyl]-7H-pyrrolo[2,3-d]pyrimidin-4-amine] reads 6.69; that for `C[C@@]1(O)[C@@H]([C@H](O)c2cc(F)cc(Cl)c2)O[C@@H](n2ccc3c(N)ncnc32)[C@@H]1O` [Example 26, 7-[(5R)-5-C-(3-chloro-5-fluorophenyl)-3-C-methyl-beta-D-ribofuranosyl]-7H-pyrrolo[2,3-d]pyrimidin-4-amine], 7.47. Consider `C[C@]1(O)[C@@H](O)[C@H](n2ccc3c(N)ncnc32)O[C@@H]1[C@](C)(O)c1cccc(C(F)F)c1` [Example 62, 7-{6-deoxy-5-C-[3-(difluoromethyl)phenyl]-3-C-methyl-alpha-L-talofuranosyl}-7H-pyrrolo[2,3-d]pyrimidin-4-amine], for which the pEC50 is 8.03. As to `Cc1ccc([C@H](O)[C@H]2O[C@@H](n3ccc4c(N)ncnc43)[C@H](O)[C@]2(C)O)cc1` [Example 31, 7-[(5S)-3-C-methyl-5-C-(4-methylphenyl)-beta-D-ribofuranosyl]-7H-pyrrolo[2,3-d]pyrimidin-4-amine], the pEC50 was under 5.00. The result for `COc1ccc([C@@H](O)[C@H]2O[C@@H](n3ccc4c(N)ncnc43)[C@H](O)[C@]2(C)O)cc1` [Example 32, 7-[(5R)-5-C-(4-methoxyphenyl)-3-C-methyl-beta-D-ribofuranosyl]-7H-pyrrolo[2,3-d]pyrimidin-4-amine] reads 5.56.

In the case of `C[C@@]1(O)[C@@H]([C@H](O)c2cc(F)c(F)c(C(F)F)c2)O[C@@H](n2ccc3c(N)ncnc32)[C@@H]1O` [Example 64, 7-{(5R)-5-C-[3-(difluoromethyl)-4,5-difluorophenyl]-3-C-methyl-beta-D-ribofuranosyl}-7H-pyrrolo[2,3-d]pyrimidin-4-amine], the pEC50 was 6.66. The result for `C[C@@]1(O)[C@@H]([C@H](O)c2cc(F)cc(C(F)(F)F)c2)O[C@@H](n2ccc3c(N)ncnc32)[C@@H]1O` [Example 58, 7-{(5R)-5-C-[3-fluoro-5-(trifluoromethyl)phenyl]-3-C-methyl-beta-D-ribofuranosyl}-7H-pyrrolo[2,3-d]pyrimidin-4-amine] reads 6.52; that for `C[C@@]1(O)[C@@H]([C@@H](O)c2cccc(F)c2F)O[C@@H](n2ccc3c(N)ncnc32)[C@@H]1O` [Example 45, 7-[(5S)-5-C-(2,3-difluorophenyl)-3-C-methyl-beta-D-ribofuranosyl]-7H-pyrrolo[2,3-d]pyrimidin-4-amine], under 5.00; that for `COc1cccc([C@H](O)[C@H]2O[C@@H](n3ccc4c(N)ncnc43)[C@H](O)[C@]2(C)O)c1` [Example 37, 7-[(5S)-5-C-(3-methoxyphenyl)-3-C-methyl-beta-D-ribofuranosyl]-7H-pyrrolo[2,3-d]pyrimidin-4-amine], under 5.00. For the compound `C[C@@]1(O)[C@@H]([C@H](O)c2cc(F)cc(F)c2F)O[C@@H](n2ccc3c(N)ncnc32)[C@@H]1O` [Example 52, 7-[(5R)-3-C-methyl-5-C-(2,3,5-trifluorophenyl)-beta-D-ribofuranosyl]-7H-pyrrolo[2,3-d]pyrimidin-4-amine], the pEC50 is 6.85.
